Assay results from patent US20070021434A1, “NON-NUCLEOSIDE ANTI-HEPACIVIRUS AGENTS AND USES THEREOF” (Migenix Inc., priority 2005, published 2007).

What follows are compounds tested against HCV RdRp (NS5B) (UniProt P26663).
Sequence of HCV RdRp (NS5B) (P26663 whole entry, looked up): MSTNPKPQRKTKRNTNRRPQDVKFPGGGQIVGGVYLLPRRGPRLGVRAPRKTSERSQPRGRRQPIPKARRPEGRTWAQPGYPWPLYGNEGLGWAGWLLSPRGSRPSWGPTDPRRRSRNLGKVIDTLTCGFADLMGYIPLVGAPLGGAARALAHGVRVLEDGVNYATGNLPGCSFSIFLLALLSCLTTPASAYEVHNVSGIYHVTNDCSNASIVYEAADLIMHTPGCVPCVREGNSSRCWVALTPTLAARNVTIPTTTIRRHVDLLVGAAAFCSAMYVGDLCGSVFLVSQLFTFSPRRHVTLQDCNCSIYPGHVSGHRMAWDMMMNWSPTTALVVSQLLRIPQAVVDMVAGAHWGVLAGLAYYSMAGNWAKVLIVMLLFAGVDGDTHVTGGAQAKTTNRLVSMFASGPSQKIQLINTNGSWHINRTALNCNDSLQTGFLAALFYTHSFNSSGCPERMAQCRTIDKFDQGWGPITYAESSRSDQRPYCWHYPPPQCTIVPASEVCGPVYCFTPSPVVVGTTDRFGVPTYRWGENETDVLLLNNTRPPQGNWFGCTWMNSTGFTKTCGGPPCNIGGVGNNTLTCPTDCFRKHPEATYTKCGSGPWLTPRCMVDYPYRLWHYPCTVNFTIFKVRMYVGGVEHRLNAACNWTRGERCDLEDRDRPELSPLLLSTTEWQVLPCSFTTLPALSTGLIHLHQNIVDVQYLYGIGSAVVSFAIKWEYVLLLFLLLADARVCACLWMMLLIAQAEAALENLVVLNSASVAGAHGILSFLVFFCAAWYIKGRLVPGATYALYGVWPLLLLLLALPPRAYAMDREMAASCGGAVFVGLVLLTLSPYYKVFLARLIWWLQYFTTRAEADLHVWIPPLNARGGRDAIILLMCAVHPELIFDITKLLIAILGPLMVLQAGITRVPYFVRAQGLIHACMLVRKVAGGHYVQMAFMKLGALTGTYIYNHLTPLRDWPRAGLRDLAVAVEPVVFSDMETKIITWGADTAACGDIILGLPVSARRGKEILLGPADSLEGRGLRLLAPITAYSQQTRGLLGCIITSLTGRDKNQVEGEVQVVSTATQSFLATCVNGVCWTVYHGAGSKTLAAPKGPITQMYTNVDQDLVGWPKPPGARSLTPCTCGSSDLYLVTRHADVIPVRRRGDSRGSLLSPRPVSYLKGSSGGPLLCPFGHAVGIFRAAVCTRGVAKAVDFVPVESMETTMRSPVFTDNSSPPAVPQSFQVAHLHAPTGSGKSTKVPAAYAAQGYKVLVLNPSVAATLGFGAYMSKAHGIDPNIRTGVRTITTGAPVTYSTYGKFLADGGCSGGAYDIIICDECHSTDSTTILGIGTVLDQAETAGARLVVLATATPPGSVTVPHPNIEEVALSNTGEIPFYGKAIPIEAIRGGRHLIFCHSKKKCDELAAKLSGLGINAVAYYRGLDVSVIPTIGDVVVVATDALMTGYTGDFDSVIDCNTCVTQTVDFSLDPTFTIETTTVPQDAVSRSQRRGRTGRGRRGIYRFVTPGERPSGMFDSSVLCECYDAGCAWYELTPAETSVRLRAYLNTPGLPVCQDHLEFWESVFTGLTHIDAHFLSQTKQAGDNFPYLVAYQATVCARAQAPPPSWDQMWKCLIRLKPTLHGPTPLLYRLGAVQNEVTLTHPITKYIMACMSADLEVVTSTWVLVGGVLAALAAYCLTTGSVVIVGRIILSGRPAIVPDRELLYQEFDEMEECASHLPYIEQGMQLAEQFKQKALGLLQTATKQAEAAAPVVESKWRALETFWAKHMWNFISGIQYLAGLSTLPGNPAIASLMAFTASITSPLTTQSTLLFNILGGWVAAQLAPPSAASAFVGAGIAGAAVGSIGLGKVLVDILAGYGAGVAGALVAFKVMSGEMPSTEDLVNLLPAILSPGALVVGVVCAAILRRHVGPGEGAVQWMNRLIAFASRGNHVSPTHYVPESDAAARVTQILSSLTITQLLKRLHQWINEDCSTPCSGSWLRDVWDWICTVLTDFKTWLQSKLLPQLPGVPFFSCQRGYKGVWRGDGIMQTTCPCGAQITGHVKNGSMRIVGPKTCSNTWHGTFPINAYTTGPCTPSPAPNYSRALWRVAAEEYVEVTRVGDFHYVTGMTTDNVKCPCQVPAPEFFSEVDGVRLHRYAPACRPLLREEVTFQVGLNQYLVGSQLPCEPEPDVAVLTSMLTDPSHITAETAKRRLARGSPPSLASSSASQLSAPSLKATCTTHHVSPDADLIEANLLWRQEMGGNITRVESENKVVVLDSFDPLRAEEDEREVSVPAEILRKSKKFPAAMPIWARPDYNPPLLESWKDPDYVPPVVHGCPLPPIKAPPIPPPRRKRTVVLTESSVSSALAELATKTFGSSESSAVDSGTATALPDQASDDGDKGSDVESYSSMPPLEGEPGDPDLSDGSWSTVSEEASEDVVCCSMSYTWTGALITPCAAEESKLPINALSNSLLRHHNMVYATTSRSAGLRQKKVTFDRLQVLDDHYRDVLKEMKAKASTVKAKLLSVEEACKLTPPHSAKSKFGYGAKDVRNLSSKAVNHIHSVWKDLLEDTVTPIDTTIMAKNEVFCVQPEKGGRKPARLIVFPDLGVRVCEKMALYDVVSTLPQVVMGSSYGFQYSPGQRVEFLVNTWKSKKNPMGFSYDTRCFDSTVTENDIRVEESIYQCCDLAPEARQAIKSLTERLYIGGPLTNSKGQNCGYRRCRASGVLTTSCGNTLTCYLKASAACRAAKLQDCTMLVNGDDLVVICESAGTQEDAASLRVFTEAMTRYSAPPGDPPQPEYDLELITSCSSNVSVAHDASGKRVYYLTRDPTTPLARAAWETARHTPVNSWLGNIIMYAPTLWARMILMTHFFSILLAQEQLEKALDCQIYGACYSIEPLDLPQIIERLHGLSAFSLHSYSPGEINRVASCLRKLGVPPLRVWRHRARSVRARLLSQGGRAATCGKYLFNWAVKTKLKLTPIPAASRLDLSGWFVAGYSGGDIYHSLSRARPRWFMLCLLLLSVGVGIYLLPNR
Type: biochemical, hepatitis C virus
`Cc1ccc(NC(=O)C(CCCCN)NC(=O)Nc2cccc(Cc3ccccc3)c2)cc1` [Compound 212, (S)-6-AMINO-2-[3-(3-BENZYL-PHENYL)-UREIDO]-HEXANOIC ACID P-TOLYLAMIDE] showed an IC50 of 10 to 50 µM.
With `COc1ccc(NC(=O)N[C@@H](CCCCN)C(=O)Nc2ccc(C)cc2)cc1` [Compound 300, (S)-6-AMINO-2-[3-(4-METHOXY-PHENYL)-UREIDO]-HEXANOIC ACID P-TOLYLAMIDE] the IC50 was > 50 µM.
For `NCCCC[C@H](NC(=O)Nc1ccc(OCc2ccccc2)cc1)C(=O)Nc1nc2ccccc2s1` [Compound 303, (S)-6-AMINO-2-[3-(4-BENZYLOXY-PHENYL)-UREIDO]-HEXANOIC ACID BENZOTHIAZOL-2-YLAMIDE], the IC50 was > 50 µM.
Work on `NCCC[C@H](NC(=O)OCC1c2ccccc2-c2ccccc21)C(=O)Nc1ccc(CN(C(=O)c2ccco2)C2CCCCC2)cc1` [Compound 15, (S)-[4-AMINO-1-(4-{[CYCLOHEXYL-(FURAN-2-CARBONYL)-AMINO]-METHYL}-PHENYLCARBAMOYL)-BUTYL]-CARBAMIC ACID 9H-FLUOREN-9-YLMETHYL ESTER] yielded an IC50 of 10 to 50 µM.
`Cc1ccc(NC(=O)C(NC(=O)OCC2c3ccccc3-c3ccccc32)C(C)O)cc1` [Compound 376, (2+/−,3S)-(2-HYDROXY-1-P-TOLYLCARBAMOYL-PROPYL)-CARBAMIC ACID 9H-FLUOREN-9-YLMETHYL ESTER] was tested, and the IC50 was > 50 µM.
For `Cc1ccc(NC(=O)[C@H](CCCCN)NC(=O)Nc2ccc(OCc3cc(F)cc(F)c3)cc2)cc1` [Compound 256, (S)-6-AMINO-2-{3-[4-(3,5-DIFLUORO-BENZYLOXY)-PHENYL]-UREIDO}-HEXANOIC ACID P-TOLYLAMIDE], the IC50 was > 50 µM.
In the case of `Cc1cc2cc(NC(=O)CN(CCCCN)C(=O)OCC3c4ccccc4-c4ccccc43)ccc2[nH]1` [Compound 295, (4-AMINO-BUTYL)-[(2-METHYL-1H-INDOL-5-YLCARBAMOYL)-METHYL]-CARBAMIC ACID 9H-FLUOREN-9-YLMETHYL ESTER], the IC50 is reported as < 10 µM.
In the case of `Cc1ccc(NC(=O)C(CCCCN)NC(=O)c2c(C)ccc3ccccc23)cc1` [Compound 63, (S)-2-METHYL-NAPHTHALENE-1-CARBOXYLIC ACID (5-AMINO-1-P-TOLYLCARBAMOYL-PENTYL)-AMIDE], the IC50 is reported as > 50 µM.
For `Cc1ccc(NC(=O)C(Cc2cnc[nH]2)NC(=O)OCC2c3ccccc3-c3ccccc32)cc1` [Compound 384, (R)-[2-(3H-IMIDAZOL-4-YL)-1-P-TOLYLCARBAMOYL-ETHYL]-CARBAMIC ACID 9H-FLUOREN-9-YLMETHYL ESTER], the IC50 was > 50 µM.
`Cc1ccc(NC(=O)C(CNC(=O)CNC(=O)CN)NC(=O)OCC2c3ccccc3-c3ccccc32)cc1` [Compound 222, (S)-{2-[2-(2-AMINO-ACETYLAMINO)-ACETYLAMINO]-1-P-TOLYLCARBAMOYL-ETHYL}-CARBAMIC ACID 9H-FLUOREN-9-YLMETHYL ESTER] gave an IC50 of 10 to 50 µM.
For `Cc1ccc(NC(=O)C2CC(OC(=O)CN)CN2C(=O)OCC2c3ccccc3-c3ccccc32)cc1` [Compound 131, (S)-[4-(R)-(2-AMINO-ACETOXY)-2-P-TOLYLCARBAMOYL-PYRROLIDINE-1-CARBOXYLIC ACID 9H-FLUOREN-9-YLMETHYL ESTER]], the IC50 was > 50 µM.
In the case of `COc1cccc(CNCC(=O)N[C@@H](CCCCN)C(=O)Nc2ccc(C)cc2)c1` [Compound 342, (S)-6-AMINO-2-[2-(3-METHOXY-BENZYLAMINO)-ACETYLAMINO]-HEXANOIC ACID P-TOLYLAMIDE], the IC50 is reported as > 50 µM.
For `Cc1ccc(NC(=O)C(Cc2ccc(CN)cc2)NC(=O)OCC2c3ccccc3-c3ccccc32)cc1` [Compound 175, (R)-[2-(4-AMINOMETHYL-PHENYL)-1-P-TOLYLCARBAMOYL-ETHYL]-CARBAMIC ACID 9H-FLUOREN-9-YLMETHYL ESTER], the IC50 was < 10 µM.
For `Cc1ccc(NC(=O)C(CN)NC(=O)OCC2c3ccccc3-c3ccccc32)cc1` [Compound 401, (R)-(2-AMINO-1-P-TOLYLCARBAMOYL-ETHYL)-CARBAMIC ACID 9H-FLUOREN-9-YLMETHYL ESTER], the IC50 was > 50 µM.
For `NCCCC[C@H](NC(=O)Nc1ccc(OCc2ccccc2)cc1)C(=O)Nc1ccc(-n2ccnc2)cc1` [Compound 317, (S)-6-AMINO-2-[3-(4-BENZYLOXY-PHENYL)-UREIDO]-HEXANOIC ACID (4-IMIDAZOL-1-YL-PHENYL)-AMIDE], the IC50 was > 50 µM.
With `Cc1ccc(NC(=O)C2CC(OC(=O)CCN)CN2C(=O)OCC2c3ccccc3-c3ccccc32)cc1` [Compound 130, (S)-(4-(R)-(3-AMINO-PROPIONYLOXY)-2-P-TOLYLCARBAMOYL-PYRROLIDINE-1-CARBOXYLIC ACID 9H-FLUOREN-9-YLMETHYL ESTER)] the IC50 was > 50 µM.
In the case of `Cc1ccc(NC(=O)[C@H](CCCCN)NC(=O)CNc2cccc(Cl)c2)cc1` [Compound 362, (S)-6-AMINO-2-[2-(3-CHLORO-PHENYLAMINO)-ACETYLAMINO]-HEXANOIC ACID P-TOLYLAMIDE], the IC50 is reported as > 50 µM.
`COc1ccccc1CNCC(=O)N[C@@H](CCCCN)C(=O)Nc1ccc(C)cc1` [Compound 341, (S)-6-AMINO-2-[2-(2-METHOXY-BENZYLAMINO)-ACETYLAMINO]-HEXANOIC ACID P-TOLYLAMIDE] was tested, and the IC50 was > 50 µM.
In the case of `CC(C)(C)OC(=O)NCC(=O)NCc1ccccc1NC(=O)CNC(=O)OCC1c2ccccc2-c2ccccc21` [Compound 325, ({2-[2-(9H-FLUOREN-9-YLMETHOXYCARBONYLAMINO)-ACETYLAMINO]-BENZYLCARBAMOYL}-METHYL)-CARBAMIC ACID TERT-BUTYL ESTER], the IC50 is reported as > 50 µM.
With `Cc1ccc(NC(=O)[C@H](CCCCN)NC(=O)Nc2ccc(OCc3ccc(F)cc3F)cc2)cc1` [Compound 285, (S)-6-AMINO-2-{3-[4-(2,4-DIFLUORO-BENZYLOXY)-PHENYL]-UREIDO}-HEXANOIC ACID P-TOLYLAMIDE] the IC50 was 10 to 50 µM.
`Cc1ccc(NC(=O)C(CCCN)NC(=O)OCC2c3ccccc3-c3ccccc32)cc1` [Compound 102, (R)-(4-AMINO-1-P-TOLYLCARBAMOYL-BUTYL)-CARBAMIC ACID 9H-FLUOREN-9-YLMETHYL ESTER] was tested, and the IC50 was > 50 µM.
`Cc1ccc(NC(=O)C(CCCCN)NC(=O)CN(c2ccccc2)C2CCCCC2)cc1` [Compound 354, (S)-6-AMINO-2-[2-(CYCLOHEXYL-PHENYL-AMINO)-ACETYLAMINO]-HEXANOIC ACID P-TOLYLAMIDE] was tested, and the IC50 was > 50 µM.
`Cc1ccc(NC(=O)C2CCCCN2C(=O)OCC2c3ccccc3-c3ccccc32)cc1` [Compound 123, (R)-2-P-TOLYLCARBAMOYL-PIPERIDINE-1-CARBOXYLIC ACID 9H-FLUOREN-9-YLMETHYL ESTER] was tested, and the IC50 was > 50 µM.
For `CC(C)(C)c1ccc(NC(=O)[C@H](Cc2ccc(CN)cc2)NC(=O)Nc2ccc3c(c2)Cc2ccccc2-3)cc1` [Compound 152, (S)-3-(4-AMINOMETHYL-PHENYL)-N-(4-TERT-BUTYL-PHENYL)-2-[3-(9H-FLUOREN-2-YL)-UREIDO]-PROPIONAMIDE], the IC50 was < 10 µM.
For `COc1ccc(CNC(=O)N[C@@H](CCCCN)C(=O)Nc2ccc(C)cc2)cc1` [Compound 139, (S)-6-AMINO-2-[3-(4-METHOXY-BENZYL)-UREIDO]-HEXANOIC ACID P-TOLYLAMIDE], the IC50 was > 50 µM.
With `Cc1ccc(NC(=O)[C@H](CCCCN)NC(=O)CNCc2ccccc2F)cc1` [Compound 344, (S)-6-AMINO-2-[2-(2-FLUORO-BENZYLAMINO)-ACETYLAMINO]-HEXANOIC ACID P-TOLYLAMIDE] the IC50 was > 50 µM.
In the case of `COc1ccc(C[C@H](N)C(=O)Nc2ccc(CN(C(=O)c3ccco3)C3CCCCC3)cc2)cc1` [Compound 9, (S)-FURAN-2-CARBOXYLIC ACID {4-[2-AMINO-3-(4-METHOXY-PHENYL)-PROPIONYLAMINO]-BENZYL}-CYCLOHEXYL-AMIDE], the IC50 is reported as > 50 µM.
With `Cc1ccc(NC(=O)[C@H](CCCCN)NC(=O)Nc2ccc(OCc3ccc(Cl)cc3)cc2)cc1` [Compound 273, (S)-6-AMINO-2-{3-[4-(4-CHLORO-BENZYLOXY)-PHENYL]-UREIDO}-HEXANOIC ACID P-TOLYLAMIDE] the IC50 was < 10 µM.
With `Cc1ccc(NC(=O)C(Cc2c[nH]c3ccccc23)NC(=O)OCC2c3ccccc3-c3ccccc32)cc1` [Compound 378, (S)-[2-(1H-INDOL-3-YL)-1-P-TOLYLCARBAMOYL-ETHYL]-CARBAMIC ACID 9H-FLUOREN-9-YLMETHYL ESTER] the IC50 was > 50 µM.
In the case of `Cc1ccc(CNCC(=O)NC(CCCCN)C(=O)Nc2ccc(C)cc2)cc1` [Compound 340, (S)-6-AMINO-2-[2-(4-METHYL-BENZYLAMINO)-ACETYLAMINO]-HEXANOIC ACID P-TOLYLAMIDE], the IC50 is reported as > 50 µM.
With `Cc1ccc(NC(=O)C(CCCCN)NC(=O)c2ccc(F)c3ccccc23)cc1` [Compound 64, (S)-4-FLUORO-NAPHTHALENE-1-CARBOXYLIC ACID (5-AMINO-1-P-TOLYLCARBAMOYL-PENTYL)-AMIDE] the IC50 was > 50 µM.
`CCOC(=O)C=Cc1ccc(NC(=O)[C@H](CCCCN)NC(=O)OCC2c3ccccc3-c3ccccc32)cc1` [Compound 59, (S)-3-{4-[6-AMINO-2-((9H-FLUOREN-9-YLMETHOXYCARBONYL)AMINO)-HEXANOYLAMINO]PHENYL}-ACRYLIC ACID ETHYL ESTER] was tested, and the IC50 was 10 to 50 µM.
With `NCCCC[C@H](NC(=O)OCC1c2ccccc2-c2ccccc21)C(=O)Nc1ccc2c(c1)CCC2` [Compound 81, (S)-[5-AMINO-1-(INDAN-5-YLCARBAMOYL)-PENTYL]-CARBAMIC ACID 9H-FLUOREN-9-YLMETHYL ESTER] the IC50 was 10 to 50 µM.
`Cc1ccc(NC(=O)C(CCCCN)NC(=O)Nc2cccc(-c3nc4ccccc4o3)c2)cc1` [Compound 271, (S)-6-AMINO-2-[3-(3-BENZOOXAZOL-2-YL-PHENYL)-UREIDO]-HEXANOIC ACID P-TOLYLAMIDE] was tested, and the IC50 was < 10 µM.
Work on `NCCCC[C@H](NC(=O)[C@@H](N)Cc1c[nH]c2ccccc12)C(=O)Nc1ccc(CN(C(=O)c2ccco2)C2CCCCC2)cc1` [Compound 23, (S)-FURAN-2-CARBOXYLIC ACID (4-{6-AMINO-2-[2-(S)-AMINO-3-(1H-INDOL-3-YL)-PROPIONYLAMINO]-HEXANOYLAMINO}-BENZYL)-CYCLOHEXYL-AMIDE] yielded an IC50 of 10 to 50 µM.
`Cc1ccc(NC(=O)[C@H](CCCCN)NC(=O)CNc2ccccc2F)cc1` [Compound 359, (S)-6-AMINO-2-[2-(2-FLUORO-PHENYLAMINO)-ACETYLAMINO]-HEXANOIC ACID P-TOLYLAMIDE] was tested, and the IC50 was > 50 µM.
In the case of `Cc1ccc(NC(=O)C(CCCCN)NC(=O)Cc2ccc(-c3ccccc3)cc2)cc1` [Compound 50, (S)-6-AMINO-2-(2-BIPHENYL-4-YL-ACETYLAMINO)-HEXANOIC ACID P-TOLYLAMIDE], the IC50 is reported as > 50 µM.
